The results in this text go back to PubChem BioAssay (NCI).

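Five concentrations, 48 hours, 96-well plates. GI50 marks 50% less growth. The concentration for full growth arrest is given as TGI.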

What all share (assay): inhibition of tumour cell growth, NCI panel, 48 h
Test [1] concerns HCT-116 colon.
Test [2] concerns NCI-H226 lung.
The test system of test [3] is UO-31 renal.
Test [4] has as its system 786-0 renal.
For test [5], the system named is A549 NSCLC.
In test [6] the test system is RXF 393 renal.
For test [7], the system named is SF-539 CNS.
Test [8] concerns SR leukemia.
The subject of test [9] is SF-268 CNS.
In test [10] the test system is COLO 205 colon.

With `CCCCCCCCCC1C(C)c2c([nH]c3ccccc23)C2C(=O)N(c3ccccc3)C(=O)C21` (configuration not stated), the TGI in [1] is 10.2 µM; in test [2], 24.9 µM; in test [3], 26.8 µM; in test [4] it was 25.1 µM; in [5], greater than 100 µM; in test [6], 5.55 µM. Moreover, in test [7], the TGI worked out at 40.6 µM.

Turning to `CC1=CC2=C(C(N)=O)C(=O)OC2(C)C(c2ccccc2)C1` (configuration not stated), the TGI in [1], in test [8], in test [9], in [2], in test [3] and in test [4] was greater than 100 µM each time. The TGI in test [5] and in test [7] was greater than 100 µM throughout.

For the compound `COc1cc(C(=O)C/C(CCC(=O)Nc2ccc(Cl)cc2Cl)=N/NC(=O)C(N)=O)ccc1O`, the TGI in test [10], in test [1], in test [9], in test [2], in test [3] and in test [4] was greater than 100 µM each time. Further, the TGI in test [5] and in test [7] was greater than 100 µM each time.

Take `O=C(CC(=O)Nc1ccccc1O)Nc1ccccc1O`: the TGI in test [10] is 33.2 µM; in test [1], 27.5 µM; in test [9] it was 75.8 µM; in [2], greater than 100 µM; in [3], 27 µM; in test [4], 36 µM. Further, the results for the TGI in [5] and in test [7] were 95.1 µM and 35.1 µM, respectively.

For the compound `CCOC(=O)C(Cc1ccccc1)NC(=O)OC(C)(C)C` (configuration not stated), the TGI in test [10], in [1], in [9], in test [3], in test [4] and in test [5] was greater than 100 µM throughout. In addition, the TGI in test [7] is greater than 100 µM.

`CC1=C(C(=O)CC(=O)C(=O)Nc2ccccc2)Sc2ccccc2N1`: the TGI in test [10], in [1], in [9], in test [2], in test [3] and in test [4] was greater than 100 µM each time. Besides, the TGI in test [5], in test [6] and in [7] was greater than 100 µM each time.

For the compound `COc1ccc(-c2cc(-c3cn[nH]c3-c3ccccn3)ccn2)cc1`, the GI50 in [10] was greater than 25 µM; in [1], greater than 25 µM; in test [9], greater than 25 µM; in test [2] it was greater than 25 µM; in test [3] it was 20.4 µM; in [4] it was greater than 25 µM. For the same compound, the GI50 in [5] was greater than 25 µM; in [6] it was greater than 25000 nM; in test [7], greater than 25 µM. Moreover, the TGI in test [10], in test [1], in test [9], in test [2], in test [3] and in [4] was greater than 25 µM each time. Besides, the TGI in [5], in test [6] and in [7] was greater than 25 µM each time.

With `C[C@]12CCC3c4ccc(O)cc4CCC3C1Cc1ccc(O)cc12` (some centres not stated), the GI50 was 12.1 µM in test [10]; 3.52 µM in [1]; 11.4 µM in test [9]; 19 µM in test [2]; 11.8 µM in test [3]; 5.22 µM in test [4]. For the same compound, the GI50 in test [5] is 13 µM; in test [7], 6.08 µM. Moreover, the TGI in [10] was 26 µM; in [1], 13.2 µM; in [9], 44.2 µM; in test [2] it was 36.6 µM; in test [3], 28.7 µM; in test [4], 18.1 µM. Also, the figures for the TGI in test [5] and in test [7] were 38.4 µM and 20.8 µM, respectively.

Turning to `CO[C@H]1C[C@@H]2CC[C@@H](C)[C@@](O)(O2)C(=O)C(=O)N2CCCC[C@H]2C(=O)O[C@H]([C@H](C)C[C@@H]2CC[C@@H](OP(C)(C)=O)[C@H](OC)C2)CC(=O)[C@H](C)/C=C(\C)[C@@H](O)[C@@H](OC)C(=O)[C@H](C)C[C@H](C)/C=C/C=C/C=C/1C`, the GI50 was 12.7 µM in [10]; 11.8 µM in test [1]; 10.9 µM in test [9]; 1.71 µM in test [2]; less than 0.01 µM in test [3]; 8.92 µM in test [4]. Moreover, the figures for the GI50 in test [5], in test [6] and in [7] were less than 0.01 µM, less than 10 nM and less than 0.0234 µM, respectively. The TGI in test [10] was determined as 27.7 µM; in test [1], 24.8 µM; in test [9], 23.6 µM; in [2] it was 24.2 µM; in [3] it was 16.1 µM; in test [4], 22.7 µM. Besides, the TGI in [5] was found to be 20.7 µM; in [6], 16.4 µM; in test [7] it was 21.7 µM.

On to `NC(=S)NNC(=O)CCC(=O)Nc1ccc(Cl)cc1Cl`, for which the TGI in test [10], in [1], in test [9], in test [2], in test [3] and in test [4] was greater than 100 µM each time. The TGI in [5], in [6] and in test [7] was greater than 100 µM each time.

Regarding `CC(=O)OCC1OC(n2c(=O)n(-c3ccccc3)c(=O)c3cc(Br)cc(Br)c32)C(OC(C)=O)C(OC(C)=O)C1OC(C)=O` (configuration not stated), the TGI in test [10], in test [1], in [9], in test [2], in test [3] and in test [4] was greater than 100 µM each time. The TGI in [5], in [6] and in test [7] was greater than 100 µM throughout.

Turning to `CCOC(=O)[C@H]1Nc2ccc(Cl)cc2[C@H]2OCC[C@@H]12`, the TGI in [10], in test [1], in test [9], in test [2], in test [4] and in test [5] was greater than 100 µM in each case. The TGI in [6] and in test [7] was greater than 100 µM in each case.

In the case of `COc1ccc2nc(NC(=O)C(=O)C(C(=O)c3ccccc3-c3ccccc3)C3OC(=O)c4ccccc43)sc2c1` (configuration not stated), the TGI in [10] stood at 39.6 µM; in [1], 27.6 µM; in test [9], 63.2 µM; in test [2], 21.2 µM; in test [3], 47.4 µM; in test [4] it was 31.7 µM. Also, the TGI was 76.4 µM in test [5], 23.8 µM in [6] and 28.9 µM in test [7].

Consider `CCC[CH2][Sn]([CH2]CCC)([O]C(=O)c1cc(OC)c(OC)cc1OC)[O]C(=O)c1cc(OC)c(OC)cc1OC`, for which the GI50 in [10] was 1.25 µM; in [1], 1.51 µM; in test [9], 1.23 µM; in test [2], 2.21 µM; in [3], 1.57 µM; in [4] it was 1.41 µM. Also, the results for the GI50 in [5], in test [6] and in test [7] were 5.14 µM, 327 nM and 1.02 µM, respectively. The TGI in test [10] stood at 2.6 µM; in test [1], 2.85 µM; in test [9] it was 2.54 µM; in [2], 8.26 µM; in test [3], 2.92 µM; in test [4], 2.78 µM. The TGI in test [5] is 18.3 µM; in test [6], 1.47 µM; in [7], 2.23 µM.

Turning to `O=C(Nc1ccccc1)NS(=O)(=O)c1ccc(N2N=C3c4ccccc4CC3C2c2ccccn2)cc1` (configuration not stated), the GI50 is 31.1 µM in [10]; 15.3 µM in test [1]; 62.1 µM in test [9]; 23.7 µM in [2]; 48.8 µM in [3]; 35.5 µM in test [4]. In addition, the GI50 in test [5] is 29.2 µM; in test [6] it was 45300 nM; in [7], 30.6 µM. In addition, the TGI in test [10] was greater than 100 µM; in test [1] it was 29.1 µM; in test [9], greater than 100 µM; in test [2] it was 75.3 µM; in [3], greater than 100 µM; in test [4] it was greater than 100 µM. Also, the TGI was greater than 100 µM in test [5], greater than 100 µM in test [6] and 75.7 µM in test [7].

As to `CCC[CH2][Ge]([CH2]CCC)([CH2]CCC)[O]C(=O)C(O)c1ccccc1` (configuration not stated), the GI50 in test [10] was 2.33 µM; in test [1], 0.571 µM; in test [9], 6.74 µM; in test [2], 1.2 µM; in [3], 0.885 µM; in [4], 7.41 µM. The GI50 in [5] was 2 µM; in test [7] it was 9.64 µM. In addition, the TGI in [10] was 12 µM; in test [1], 13.8 µM; in [9] it was greater than 65.1 µM; in [2], 27.9 µM; in test [3], 15.8 µM; in test [4] it was 23.2 µM. Also, the TGI in test [5] is 26 µM; in test [6], 1.06 µM; in test [7], 22.1 µM.

Regarding `Cc1ccc(NC(=O)CC/C(CC(=O)c2ccc(F)cc2)=N\NC(=O)C(=O)NN)cc1C`, the TGI in test [10], in test [1], in test [9], in test [2], in test [3] and in test [4] was greater than 100 µM throughout. Moreover, the TGI in test [5], in test [6] and in test [7] was greater than 100 µM in each case.

As to `Nc1ccc2c(c1)CC1c3ccccc3C(C2)c2ccccc21`, the TGI in test [10], in [1], in test [9], in [3], in test [4] and in test [5] was greater than 100 µM in each case. Moreover, the TGI in test [6] and in test [7] was greater than 100 µM in each case.

`CCC1(C(=O)OC)CCc2c(OC)ccc(OC)c2C1=O` (configuration not stated): the TGI in test [10], in [1], in [9], in [3], in test [4] and in [5] was greater than 100 µM throughout. In test [7], this compound showed a TGI greater than 100 µM.

As for `Cc1ccc2c(Nc3cccc(Cl)c3F)ncc(NC(=O)c3csc4c(N)ncnc34)c2c1`, the GI50 is 0.0492 µM in test [10]; 0.0961 µM in [1]; greater than 100 µM in test [9]; greater than 100 µM in test [2]; 0.291 µM in test [3]; greater than 100 µM in [4]. The GI50 in test [5] is greater than 73.5 µM; in test [6], greater than 100000 nM; in [7] it was greater than 100 µM. In addition, the TGI in test [10], in test [1], in test [9], in [2], in [3] and in [4] was greater than 100 µM in each case. In addition, the TGI in test [5], in [6] and in test [7] was greater than 100 µM throughout.

As to `O=C1c2cc3c(cc2[C@@H]2[C@H]1c1ccc([N+](=O)[O-])cc1C(=O)N2CCCCl)OCO3`, the GI50 was less than 0.0131 µM in test [10]; less than 0.01 µM in test [1]; less than 0.01 µM in test [9]; less than 0.01 µM in test [2]; less than 0.01 µM in [3]; less than 0.01 µM in test [4]. Moreover, the GI50 in test [5] is less than 0.01 µM; in [6], less than 10 nM; in test [7], less than 0.01 µM. In addition, the TGI in test [10] is greater than 100 µM; in test [1], 15.7 µM; in test [2] it was 0.136 µM; in [4], less than 0.0135 µM; in test [5], greater than 100 µM; in [6], 10.1 µM.

In the case of `CC[C@H](C)[C@H](NC(=O)Nc1ccccc1)C(=O)N(C)[C@H](C[C@@H](OC(C)=O)c1nc(C(=O)N[C@@H](Cc2ccccc2)C[C@H](C)C(=O)OC)cs1)C(C)C`, the GI50 in [10] was 3.17 µM; in [1] it was 3.33 µM; in test [9], 5.13 µM; in [2], 8.83 µM; in test [3], 6.82 µM; in [4], 3.56 µM. Also, the values for the GI50 in test [5], in test [6] and in test [7] were 7.49 µM, 1950 nM and 2.37 µM, respectively. Also, the TGI was 18.2 µM in test [10]; greater than 100 µM in test [1]; greater than 100 µM in test [9]; greater than 100 µM in [2]; greater than 100 µM in test [3]; greater than 100 µM in test [4]. In addition, the TGI is greater than 100 µM in test [5], 7.25 µM in test [6] and 6.85 µM in [7].
